According to patent publication EP4772510A2, “BENZAZEPINONE COMPOUND AND USE THEREOF” (HANGZHOU BIO-SINCERITY PHARMA-TECHCO., LTD., priority 2023, dated 2025):

Biological target: T1, hERG ion channel (Homo sapiens, UniProt Q12809)
T1 construct: expressed in transfected cells
Assay: Inhibition of hERG ion channel (whole-cell patch clamp, HEK293 cells)
Assay type: cell-based
Details: compound 10 µM, room temperature
Protocol: Example 58: Inhibition of hERG Ion Channel by Compounds
The hERG ion channel was stably expressed in HEK293 cells.
The test sample was dissolved in dimethyl sulfoxide (DMSO) to prepare a 9 mM stock solution, which was stored in a -20 °C freezer. On the testing day, the stock solution was further dissolved in the extracellular fluid to achieve the required concentrations. The concentration for electrophysiological test was 10 µM.
The extracellular fluid (mM) was: sodium chloride, 137; potassium chloride, 4; calcium chloride, 1.8; magnesium chloride, 1; HEPES, 10; glucose, 10. The pH was adjusted to 7.34 with sodium hydroxide. The extracellular fluid was stored at 2-8 °C.
The intracellular fluid (mM) was: potassium aspartate, 130; magnesium chloride, 5; ethylene glycol tetraacetic acid (EGTA), 5; N-2-hydroxyethylpiperazine-N'-2-ethanesulfonic acid (HEPES), 10. […]
For administration of the test samples, perfusion was carried out using a perfusion system utilizing the gravity of one's own. […] The mean of the peak current amplitudes recorded for the last three times during the initial recording served as the current peak of the negative control. After the initial current was stable, the test samples were administered starting from a low concentration until three recorded peak currents were again stable or the peak currents were "constant" after and before continuous administration for 5 min. […]

T1 sequence (Q12809 whole entry): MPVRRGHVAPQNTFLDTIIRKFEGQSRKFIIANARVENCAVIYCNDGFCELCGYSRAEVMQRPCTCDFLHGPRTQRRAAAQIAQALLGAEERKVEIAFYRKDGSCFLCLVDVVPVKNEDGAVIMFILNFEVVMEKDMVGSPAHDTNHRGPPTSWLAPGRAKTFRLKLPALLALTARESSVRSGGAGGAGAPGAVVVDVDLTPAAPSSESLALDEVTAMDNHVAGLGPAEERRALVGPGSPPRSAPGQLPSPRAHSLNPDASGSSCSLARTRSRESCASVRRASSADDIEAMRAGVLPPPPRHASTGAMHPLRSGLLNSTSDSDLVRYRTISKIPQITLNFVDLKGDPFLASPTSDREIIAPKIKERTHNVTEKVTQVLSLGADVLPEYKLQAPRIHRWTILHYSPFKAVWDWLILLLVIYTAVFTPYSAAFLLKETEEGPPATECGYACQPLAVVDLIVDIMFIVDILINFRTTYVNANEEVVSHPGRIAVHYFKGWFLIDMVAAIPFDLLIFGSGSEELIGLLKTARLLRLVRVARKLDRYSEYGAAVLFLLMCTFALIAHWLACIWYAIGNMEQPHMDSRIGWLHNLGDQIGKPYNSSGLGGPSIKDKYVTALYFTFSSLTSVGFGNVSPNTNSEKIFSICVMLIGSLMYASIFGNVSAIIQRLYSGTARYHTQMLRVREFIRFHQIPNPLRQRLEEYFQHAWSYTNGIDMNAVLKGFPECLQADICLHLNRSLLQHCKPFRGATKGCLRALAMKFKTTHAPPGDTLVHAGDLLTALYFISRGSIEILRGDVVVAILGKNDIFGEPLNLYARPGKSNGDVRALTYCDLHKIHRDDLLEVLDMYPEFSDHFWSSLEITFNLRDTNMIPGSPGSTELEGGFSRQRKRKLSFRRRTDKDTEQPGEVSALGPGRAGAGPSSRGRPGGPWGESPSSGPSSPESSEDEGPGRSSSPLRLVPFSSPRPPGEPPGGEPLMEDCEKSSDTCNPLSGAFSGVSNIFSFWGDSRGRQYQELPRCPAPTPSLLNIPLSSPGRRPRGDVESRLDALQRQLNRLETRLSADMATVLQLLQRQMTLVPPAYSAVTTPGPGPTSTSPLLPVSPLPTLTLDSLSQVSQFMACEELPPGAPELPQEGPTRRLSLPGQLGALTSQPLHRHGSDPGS

Row | Compound | Percentage blocking rate of hERG channel [%]
1 | O=C(NC1CCc2cc(C#Cc3cnn(C(F)F)c3)cc3c2N(CC3)C1=O)c1ncn(Cc2c(F)cccc2F)n1 (centres unmarked) [III-17, 1-(2,6-difluorobenzyl)-N-(9-((1-(difluoromethyl)-1H-pyrazol-4-yl)ethynyl)-4-oxo-1,2,3,4,6,7-hexahydroazepino[3,2,1-hi]indol-3-yl)-1H-1,2,4-triazole-3-carboxamide] | 38.89
2 | N-(9-((1-(difluoromethyl)-1H-pyrazol-4-yl)ethynyl)-4-oxo-1,2,3,4,6,7-hexahydroazepino[3,2,1-hi]indol-3-yl)-1-(4-methylbenzyl)-1H-1,2,4-triazole-3-carboxamide [III-25] | 39.58
